# In patent publication US20260242419A1, “A CYCLIC PEPTIDE FOR TRAPPING INTERLEUKIN-1 BETA” (Merck Sharp & Dohme LLC, priority 2023, published 2026):
# Starred links: 1 amine or outer side, 2 acyl side, 3 side chain; linkers in the order of their positions; H or OH if unused. Non-standard residues stand in square brackets, D forms with d. Residues, ends and D or L forms follow the SMILES beside them. Phe(4-(5-CO2H-2-pyrimidyl)) = N[C@@H](Cc1ccc(-c2ncc(C(=O)O)cn2)cc1)C(=O)O; Phe(4-(4-Ac-piperazinyl)) = CC(=O)N1CCN(c2ccc(C[C@H](N)C(=O)O)cc2)CC1; dPro(4R-(4-pyridylmethyl)) = O=C(O)[C@H]1C[C@@H](Cc2ccncc2)CN1; Ala(piperidin-4-yl) = O=C([C@H](CC1CCN([*:3])CC1)N[*:1])[*:2]; Trp(βS-Me,4-F) = C[C@@H](c1c[nH]c2cccc(F)c12)[C@H](N)C(=O)O; Bip(4'-COOH) = N[C@@H](Cc1ccc(-c2ccc(C(=O)O)cc2)cc1)C(=O)O; Ala(1-bicyclo(1.1.1)pentyl) = N[C@@H](CC12CC(C1)C2)C(=O)O; dPro(4R-Bzl(4-F)) = O=C(O)[C@H]1C[C@@H](Cc2ccc(F)cc2)CN1; Ala(morpholin-4-yl) = N[C@@H](CN1CCOCC1)C(=O)O; Ala(piperazin-1-yl) = N[C@@H](CN1CCNCC1)C(=O)O; Ala(pyrimidin-5-yl) = N[C@@H](Cc1cncnc1)C(=O)O; Phe(4-COOH) = N[C@@H](Cc1ccc(C(=O)O)cc1)C(=O)O; Pro(cis-4-F) = O=C(O)[C@@H]1C[C@H](F)CN1; cisHyp = O=C(O)[C@@H]1C[C@H](O)CN1; d(αMeD) = C[C@@](N)(CC(=O)O)C(=O)O; 4Pal = N[C@@H](Cc1ccncc1)C(=O)O; aThr = C[C@H](O)[C@H](N)C(=O)O; αMeD = C[C@](N)(CC(=O)O)C(=O)O; d(αMeS) = C[C@@](N)(CO)C(=O)O; αMeK = C[C@](N)(CCCCN)C(=O)O; Dab = NCC[C@H](N)C(=O)O; Aib = CC(C)(N)C(=O)O
# Molecular target: T1, IL-1β (Homo sapiens, UniProt P01584)
# T1 construct: purchased BioLegend 579404
# T1 sequence (P01584 117-269): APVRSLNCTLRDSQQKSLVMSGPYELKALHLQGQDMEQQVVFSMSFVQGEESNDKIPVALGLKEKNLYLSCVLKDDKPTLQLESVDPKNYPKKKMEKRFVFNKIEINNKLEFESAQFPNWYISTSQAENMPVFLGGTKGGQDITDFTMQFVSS
# Assay: IL-6 assay in MRC5 cells: inhibition of IL-1β induced IL-6 secretion (AlphaLISA)
# Assay type: cell-based
# Conditions: inhibition of IL-1β induced IL-6 secretion in MRC5 cells; read-out: MRC5 IC50
# Summary of the method: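 Compound was pre-incubated 1 h at ambient temperature with recombinant human IL-1β at 2λ EC80 before adding human lung fibroblast MRC5 cells (3000/well) in EMEM with 0.025% BSA. After overnight culture at 37 °C, 5% CO2, secreted IL-6 in conditioned medium was measured by AlphaLISA; IC50 from 4-parameter logistic fits.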
row,SMILES,IC50
1,"C[C@@H](c1c[nH]c2cccc(F)c12)[C@@H]1NC(=O)[C@@H]2C[C@H](F)CN2C(=O)CNC(=O)[C@H](Cc2ccc(C(=O)O)cc2)NC(=O)[C@H](CC23CC(C2)C3)NC(=O)[C@H](Cc2ccc(-c3ccc(C(=O)O)cc3)cc2)NC(=O)[C@H]2C[C@@H](Cc3ccc(F)cc3)CN2C(=O)CNC(=O)[C@H](CCN)NC(=O)[C@H](CCC(N)=O)NC(=O)[C@H](CN2CCOCC2)NC(=O)[C@](C)(CCCCN)NC(=O)[C@H](Cc2c[nH]c3ccccc23)NC(=O)[C@H](CO)NC(=O)C(C)(C)NC1=O [Example 174] (cyclo([Bip(4'-COOH)][Ala(1-bicyclo(1.1.1)pentyl)][Phe(4-COOH)]G[Pro(cis-4-F)][Trp(βS-Me,4-F)][Aib]SW[αMeK][Ala(morpholin-4-yl)]Q[Dab]G[dPro(4R-Bzl(4-F))]))",0.025 nM
2,"C[C@@H](c1c[nH]c2cccc(F)c12)[C@@H]1NC(=O)[C@@H]2C[C@H](F)CN2C(=O)CNC(=O)[C@H](Cc2ccc(C(=O)O)cc2)NC(=O)[C@H](CC23CC(C2)C3)NC(=O)[C@H](Cc2ccc(-c3ccc(C(=O)O)cc3)cc2)NC(=O)[C@H]2C[C@@H](Cc3ccc(F)cc3)CN2C(=O)CNC(=O)[C@H](CO)NC(=O)[C@H](CCC(N)=O)NC(=O)[C@H](CN2CCNCC2)NC(=O)[C@](C)(CCCCN)NC(=O)[C@H](Cc2c[nH]c3ccccc23)NC(=O)[C@H](CO)NC(=O)C(C)(C)NC1=O [Example 175] (cyclo([Bip(4'-COOH)][Ala(1-bicyclo(1.1.1)pentyl)][Phe(4-COOH)]G[Pro(cis-4-F)][Trp(βS-Me,4-F)][Aib]SW[αMeK][Ala(piperazin-1-yl)]QSG[dPro(4R-Bzl(4-F))]))",0.037 nM
3,"C[C@@H](c1c[nH]c2cccc(F)c12)[C@@H]1NC(=O)[C@@H]2C[C@H](F)CN2C(=O)CNC(=O)[C@H](Cc2ccc(C(=O)O)cc2)NC(=O)[C@H](CC23CC(C2)C3)NC(=O)[C@H](Cc2ccc(-c3ccc(C(=O)O)cc3)cc2)NC(=O)[C@H]2C[C@@H](Cc3ccncc3)CN2C(=O)CNC(=O)[C@H](CO)NC(=O)[C@H](CCC(N)=O)NC(=O)[C@H](CC2CCNCC2)NC(=O)C(C)(C)NC(=O)[C@H](Cc2c[nH]c3ccccc23)NC(=O)[C@H](CCC(=O)O)NC(=O)C(C)(C)NC1=O [Example 176] (cyclo([Bip(4'-COOH)][Ala(1-bicyclo(1.1.1)pentyl)][Phe(4-COOH)]G[Pro(cis-4-F)][Trp(βS-Me,4-F)][Aib]EW[Aib][Ala(piperidin-4-yl)]QSG[dPro(4R-(4-pyridylmethyl))]))",0.036 nM
4,"C[C@@H](c1c[nH]c2cccc(F)c12)[C@@H]1NC(=O)[C@@H]2C[C@H](F)CN2C(=O)CNC(=O)[C@H](Cc2ccc(C(=O)O)cc2)NC(=O)[C@H](CC23CC(C2)C3)NC(=O)[C@H](Cc2ccc(-c3ccc(C(=O)O)cc3)cc2)NC(=O)[C@H]2C[C@@H](Cc3ccncc3)CN2C(=O)CNC(=O)[C@H](CO)NC(=O)[C@H](CCC(N)=O)NC(=O)[C@H](CN2CCOCC2)NC(=O)[C@@](C)(CO)NC(=O)[C@H](Cc2c[nH]c3ccccc23)NC(=O)[C@H](CCC(=O)O)NC(=O)C(C)(C)NC1=O [Example 177] (cyclo([Bip(4'-COOH)][Ala(1-bicyclo(1.1.1)pentyl)][Phe(4-COOH)]G[Pro(cis-4-F)][Trp(βS-Me,4-F)][Aib]EW[d(αMeS)][Ala(morpholin-4-yl)]QSG[dPro(4R-(4-pyridylmethyl))]))",0.031 nM
5,"C[C@@H](c1c[nH]c2cccc(F)c12)[C@@H]1NC(=O)[C@@H]2C[C@H](F)CN2C(=O)CNC(=O)[C@H](Cc2ccc(C(=O)O)cc2)NC(=O)[C@H](CC23CC(C2)C3)NC(=O)[C@H](Cc2ccc(-c3ccc(C(=O)O)cc3)cc2)NC(=O)[C@H]2C[C@@H](Cc3ccncc3)CN2C(=O)CNC(=O)[C@H](CO)NC(=O)[C@H](CCC(N)=O)NC(=O)[C@H](CC2CCNCC2)NC(=O)[C@@](C)(CO)NC(=O)[C@H](Cc2c[nH]c3ccccc23)NC(=O)[C@H](CCC(=O)O)NC(=O)C(C)(C)NC1=O [Example 178] (cyclo([Bip(4'-COOH)][Ala(1-bicyclo(1.1.1)pentyl)][Phe(4-COOH)]G[Pro(cis-4-F)][Trp(βS-Me,4-F)][Aib]EW[d(αMeS)][Ala(piperidin-4-yl)]QSG[dPro(4R-(4-pyridylmethyl))]))",0.041 nM
6,"C[C@@H](c1c[nH]c2cccc(F)c12)[C@@H]1NC(=O)[C@@H]2C[C@H](F)CN2C(=O)CNC(=O)[C@H](Cc2ccc(C(=O)O)cc2)NC(=O)[C@H](CC23CC(C2)C3)NC(=O)[C@H](Cc2ccc(-c3ccc(C(=O)O)cc3)cc2)NC(=O)[C@H]2C[C@@H](Cc3ccncc3)CN2C(=O)CNC(=O)[C@H](CO)NC(=O)[C@H](CCC(N)=O)NC(=O)[C@H](CN2CCOCC2)NC(=O)C(C)(C)NC(=O)[C@H](Cc2c[nH]c3ccccc23)NC(=O)[C@H](CO)NC(=O)C(C)(C)NC1=O [Example 179] (cyclo([Bip(4'-COOH)][Ala(1-bicyclo(1.1.1)pentyl)][Phe(4-COOH)]G[Pro(cis-4-F)][Trp(βS-Me,4-F)][Aib]SW[Aib][Ala(morpholin-4-yl)]QSG[dPro(4R-(4-pyridylmethyl))]))",0.029 nM
7,"C[C@@H](c1c[nH]c2cccc(F)c12)[C@@H]1NC(=O)[C@@H]2C[C@H](F)CN2C(=O)CNC(=O)[C@H](Cc2ccc(C(=O)O)cc2)NC(=O)[C@H](CC23CC(C2)C3)NC(=O)[C@H](Cc2ccc(-c3ccc(C(=O)O)cc3)cc2)NC(=O)[C@H]2C[C@@H](Cc3ccncc3)CN2C(=O)CNC(=O)[C@H](CO)NC(=O)[C@H](CCC(N)=O)NC(=O)[C@H](CC2CCNCC2)NC(=O)C(C)(C)NC(=O)[C@H](Cc2c[nH]c3ccccc23)NC(=O)[C@H](CO)NC(=O)C(C)(C)NC1=O [Example 180] (cyclo([Bip(4'-COOH)][Ala(1-bicyclo(1.1.1)pentyl)][Phe(4-COOH)]G[Pro(cis-4-F)][Trp(βS-Me,4-F)][Aib]SW[Aib][Ala(piperidin-4-yl)]QSG[dPro(4R-(4-pyridylmethyl))]))",0.027 nM
8,"C[C@@H](c1c[nH]c2cccc(F)c12)[C@@H]1NC(=O)[C@@H]2C[C@H](F)CN2C(=O)CNC(=O)[C@H](Cc2ccc(C(=O)O)cc2)NC(=O)[C@H](CC23CC(C2)C3)NC(=O)[C@H](Cc2ccc(-c3ccc(C(=O)O)cc3)cc2)NC(=O)[C@H]2C[C@@H](Cc3ccncc3)CN2C(=O)CNC(=O)[C@H](CO)NC(=O)[C@H](CCC(N)=O)NC(=O)[C@H](CC2CCNCC2)NC(=O)[C@@](C)(CO)NC(=O)[C@H](Cc2c[nH]c3ccccc23)NC(=O)[C@H](CO)NC(=O)C(C)(C)NC1=O [Example 181] (cyclo([Bip(4'-COOH)][Ala(1-bicyclo(1.1.1)pentyl)][Phe(4-COOH)]G[Pro(cis-4-F)][Trp(βS-Me,4-F)][Aib]SW[d(αMeS)][Ala(piperidin-4-yl)]QSG[dPro(4R-(4-pyridylmethyl))]))",0.021 nM
9,"C[C@H](O)[C@@H]1NC(=O)C(C)(C)NC(=O)[C@H]([C@@H](C)c2c[nH]c3cccc(F)c23)NC(=O)[C@@H]2C[C@H](O)CN2C(=O)CNC(=O)[C@H](Cc2ccc(C(=O)O)cc2)NC(=O)[C@H](CC23CC(C2)C3)NC(=O)[C@H](Cc2ccc(-c3ccc(C(=O)O)cc3)cc2)NC(=O)[C@H]2C[C@@H](Cc3ccncc3)CN2C(=O)CNC(=O)[C@H](CCN)NC(=O)[C@H](CCC(N)=O)NC(=O)[C@H](Cc2cncnc2)NC(=O)[C@@](C)(CC(=O)O)NC(=O)[C@H](Cc2c[nH]c3ccccc23)NC1=O [Example 182] (cyclo([Bip(4'-COOH)][Ala(1-bicyclo(1.1.1)pentyl)][Phe(4-COOH)]G[cisHyp][Trp(βS-Me,4-F)][Aib][aThr]W[d(αMeD)][Ala(pyrimidin-5-yl)]Q[Dab]G[dPro(4R-(4-pyridylmethyl))]))",0.049 nM
10,"CC(=O)N1CCN(c2ccc(C[C@@H]3NC(=O)[C@H]4C[C@@H](Cc5ccc(F)cc5)CN4C(=O)CNC(=O)[C@H](CCN)NC(=O)[C@H](CCC(N)=O)NC(=O)[C@H](Cc4cncnc4)NC(=O)C(C)(C)NC(=O)[C@H](Cc4c[nH]c5ccccc45)NC(=O)[C@H](CO)NC(=O)C(C)(C)NC(=O)[C@H]([C@@H](C)c4c[nH]c5cccc(F)c45)NC(=O)[C@@H]4C[C@H](F)CN4C(=O)CNC(=O)[C@H](Cc4ccc(C(=O)O)cc4)NC(=O)[C@H](Cc4ccncc4)NC3=O)cc2)CC1 [Example 183] (cyclo([Phe(4-(4-Ac-piperazinyl))][4Pal][Phe(4-COOH)]G[Pro(cis-4-F)][Trp(βS-Me,4-F)][Aib]SW[Aib][Ala(pyrimidin-5-yl)]Q[Dab]G[dPro(4R-Bzl(4-F))]))",0.025 nM
11,"CC(=O)N1CCN(c2ccc(C[C@@H]3NC(=O)[C@H]4C[C@@H](Cc5ccc(F)cc5)CN4C(=O)CNC(=O)[C@H](CCN)NC(=O)[C@H](CCC(N)=O)NC(=O)[C@H](Cc4cncnc4)NC(=O)[C@](C)(CC(=O)O)NC(=O)[C@H](Cc4c[nH]c5ccccc45)NC(=O)[C@H](CO)NC(=O)C(C)(C)NC(=O)[C@H]([C@@H](C)c4c[nH]c5cccc(F)c45)NC(=O)[C@@H]4C[C@H](F)CN4C(=O)CNC(=O)[C@H](Cc4ccc(C(=O)O)cc4)NC(=O)[C@H](Cc4ccncc4)NC3=O)cc2)CC1 [Example 184] (cyclo([Phe(4-(4-Ac-piperazinyl))][4Pal][Phe(4-COOH)]G[Pro(cis-4-F)][Trp(βS-Me,4-F)][Aib]SW[αMeD][Ala(pyrimidin-5-yl)]Q[Dab]G[dPro(4R-Bzl(4-F))]))",0.014 nM
12,"C[C@@H](c1c[nH]c2cccc(F)c12)[C@@H]1NC(=O)[C@@H]2C[C@H](O)CN2C(=O)CNC(=O)[C@H](Cc2ccc(C(=O)O)cc2)NC(=O)[C@H](CC23CC(C2)C3)NC(=O)[C@H](Cc2ccc(-c3ncc(C(=O)O)cn3)cc2)NC(=O)[C@H]2C[C@@H](Cc3ccncc3)CN2C(=O)CNC(=O)[C@H](CCN)NC(=O)[C@H](CCC(N)=O)NC(=O)[C@H](Cc2cncnc2)NC(=O)C(C)(C)NC(=O)[C@H](Cc2c[nH]c3ccccc23)NC(=O)[C@H](CO)NC(=O)C(C)(C)NC1=O [Example 185] (cyclo([Phe(4-(5-CO2H-2-pyrimidyl))][Ala(1-bicyclo(1.1.1)pentyl)][Phe(4-COOH)]G[cisHyp][Trp(βS-Me,4-F)][Aib]SW[Aib][Ala(pyrimidin-5-yl)]Q[Dab]G[dPro(4R-(4-pyridylmethyl))]))",0.043 nM
